Patent US20100272811A1 (priority 2008, published 2010)
Read-outs that look alike come from different tables or passages of the source.

Tests used:
[1] = Pharmacokinetic profile of trospium powder formulations administered to rats via insufflation; type: in vivo, Sprague-Dawley rats; details: rat, intratracheal insufflation, approx. 200 μg trospium, plasma, mean ± standard error
Procedure: Male Sprague-Dawley rats (weight 400±50 grams) were administered various powder formulations of trospium by insufflation. The rats were divided into four groups of four rats as follows: • Group A—Insufflated intratracheally with Leucine/Trospium/DPPC containing approximately 200 μg Trospium • Group B—Insufflated intratracheally with Leucine/Trospium/NaSaccharin containing approximately 200 μg Trospium • Group C—Insufflated intratracheally with Leucine/Citrate/NaSaccharin/Trospium containing approximately 200 μg Trospium • Group D—Insufflated intratracheally with Leucine/Trospium containing approximately 200 μg Trospium The formulations tested are described in Table 2.
Rats were anesthetized using inhaled Isofluorane. Drug powder was then intratracheally insufflated into each rat. All animals were allowed food and water ad libitum between blood collection time points. Blood samples were collected by a lateral tail vein after anesthesia. A syringe without an anticoagulant was used for blood collection and the whole blood was transferred to tubes containing K2 EDTA (MIRCOTAINER®; MFG# BD365974). The blood samples were processed (the tubes are inverted 15-20 times and centrifuged for 2 minutes at >14,000 g's to separate plasma). The plasma samples prepared in this manner were transferred to labeled plain tubes (MICROTAINER®; MFG# BD5962) and stored frozen at <−70° C. 250 ul of whole blood was obtained for each time point. Sample collection times were pre-insufflation, 2.5, 5.0, 7.5, 10, 15, 30, 60 and 120 minutes after insufflation.
Plasma samples were analyzed for trospium using an Ionspray LC/MS/MS (Liquid Chromatography coupled with Mass Spectrometery). Briefly, 100 ul of standard (trospium standard solutions in rat plasma), control or test samples were added to the wells of a 96-well plate. The trospium standard solutions were prepared by adding 100 ul of 1 ug/ml trospium chloride (in methanol) with rat plasma to yield a nominal concentration of 4000 pg/ml. Standard solutions in rat plasma were prepared as follows:
Controls were prepared by adding 1 ug/ml trospium chloride in methanol to rat plasma to yield concentrations of 2500 pg/ml, 800 pg/ml and 200 pg/ml of internal standard solution (2.5 ng/ml clidinium bromide in water) were added to all wells except those containing blank plasma samples. 20 ul of 50 mM ammonium acetate (pH 9.0) solution and 350 ul acetonitrile were added to all wells and the plate was shaken on an orbital shaker for 1-2 minutes. The plate was centrifuged at 2000×g for 5-7 minutes. The supernatant was removed added onto an Agilent 96-well plate and concentrated to dryness using a Speed Vacuum. The dry sample were then reconstituted with 100 ul of 50:50 methanol:water and analyzed by LC/MS/MS.
Quantitation was performed using a weighted (1/×) linear regression analysis generated from standard samples.

[2] = background statement; cited from earlier work

| Compound | AUC [1] [ng·min/mL] | Cmax [1] [ng/mL] | Tmax [1] [min] | solubility (30% ethanol with inline heating at 55° C.) | soluble in water (water at room temperature) | aqueous solubility [2] | AUC ([1]; male, Sprague-Dawley, inhaled or intranasal, 200 ug, read-out: AUC (converted)) [ng·min/mL] | Cmax ([1]; male, Sprague-Dawley, inhaled or intranasal, 200 ug, read-out: Cmax) [ng/mL] | Tmax ([1]; male, Sprague-Dawley, inhaled or intranasal, 200 ug, read-out: Tmax (converted)) [min] |
| --- | --- | --- | --- | --- | --- | --- | --- | --- | --- |
| O=C(OC1C[C@H]2CC[C@@H](C1)[N+]21CCCC1)C(O)(c1ccccc1)c1ccccc1.O=C1NS(=O)(=O)c2ccccc21 (stereo partly drawn) [Trospium saccharin complex] | 1102 ± 76.9 | 43.50 ± 5.32 | 9.38 ± 1.40 | greater than 4 mg/ml | less than 0.4 mg/ml |  |  |  |  |
| O=C(O[C@H]1C[C@H]2CC[C@@H](C1)[N+]21CCCC1)C(O)(c1ccccc1)c1ccccc1 [Trospium chloride, endo-3-[(hydroxydiphenyl-acetyl)oxy]spiro[8-azoniabicyclo[3.2.1]octane-8,-1′-pyrrolidinium]chloride, reference compound] |  |  |  |  |  | relatively high | 1490 | 71.2 ± 6.26 | 6.31 |
